Test results from article PMC6295574, “Molecular and Functional Characterization of Odorant Binding Protein 7 From the Oriental Fruit Moth Grapholita molesta (Busck) (Lepidoptera: Tortricidae)” (Frontiers in Physiology, 2018).
“Also recorded” adds a separate entry of the source. Read-outs that look alike come from different tables or passages of the source.

What was measured:
[1] = target: T1, rGmolOBP7 (recombinant GmolOBP7) (Grapholita molesta, UniProt A0A2R4SBC1); assay: biochemical; type: binding; settings: for binding to rGmolOBP7 (in words): competitive binding, 1-NPN probe
Description: (§1) Fluorescence intensity was detected on a spectrophotofluorometer (F-4500, Hitachi, Japan) at room temperature using a quartz cuvette with a 1 cm light path. The silt width of excitation and emissions were all 10 nm. The fluorescence probe 1-NPN was excited at 337 nm and the emission spectra were recorded between 370 and 550 nm. Four sex pheromone components and 31 volatiles, derived from peach shoots and pear fruits, were selected for binding assays (Table 2). The probe 1-NPN and tested ligands were all dissolved in spectrophotometric-grade methanol to obtain a 1 mM stock solution.
The corresponding florescence intensity values were collected as three independent measurements. The binding constant (K1−NPN) of 1-NPN to rGmolOBP7 was calculated using GraphPad Prism 5 software (GraphPad Software, Inc.) via nonlinear regression for a unique site of binding.

[2] = system: Grapholita molesta antennae; assay: EAG responses of GmolOBP7-dsRNA-injected moths to stimulants; settings: stimulant 10 mg/mL in liquid paraffin; for EAG response of dsRNA-treated moths vs non-injected control: male and female moths, 1-day-old; for EAG response of dsGmolOBP7-injected male moths vs dsGFP-injected and non-injected controls: 1-day-old males
Description: Based on the expression patterns observed at different insect stages, 5-day-old G. molesta pupae (later-pupae) were selected to receive a dsRNA microinjection. The conjunctivum between the prothorax and mesothorax, the conjunctivum between the mesothorax and metathorax and the conjunctivum between the thorax and abdomen were initially selected as putative injection sites. Then, 39, 69, and 138 nL of RNase-free H2O were injected into different conjunctiva, respectively. A total of 69 nL (approximately 241.5 ng dsRNA) of dsGmolOBP7 or dsGFP was injected into the appropriate injection sites of each 5-day-old pupa, by using a PL1-100 Pico-Injector (Harvard Apparatus, Holliston, MA, USA) operated by an MP-255 Micromanipulator (Sutter, Novato, CA, USA). Each type of dsRNA was injected into 600 male and 600 female moths. The heads (with antenna) of 1-, 2-, 3-, and 4 day-old adults were dissected and immediately stored at −80°C prior to use. The total RNA and first-strand cDNA were obtained in accordance with previous methods. The specimens were used for qRT-PCR analysis to test the reduction in GmolOBP7 transcription. Experiments were performed with three biological replicates and three technical replicates.
EAG responses of dsRNA-injected (including dsGmolOBP7 and dsGFP) moths and non-injected controls, to sex pheromones and host plant volatiles were detected using Electroantennography. All stimulants were diluted with liquid paraffin to the final concentration of 10 mg/mL. Liquid paraffin and cis-3-hexenyl acetate were used as the blank and reference control, respectively. Both ends of adult antennae were cut and blocked with a drop of Spectra® 360 Electrode Gel (Parker Laboratories, Fairfield, USA). The basal section was connected to the reference electrode while the distal end was linked to the recording electrode. A filtered humidified air stream was delivered by a Syntech stimulus controller (CS55 model, Syntech, Germany) at a constant flow rate of 50 cm/s, and the time of stimuli flow was 0.5 s. Filter paper strips (0.6 cm × 4.5 cm) were dripped with 15 μL of chemical solution as a stimulus source and inserted into a 1.5 mL micropipet tip. A set of stimulants consisted of four sex pheromones and five host-plant volatiles which can be strongly bound with rGmolOBP7. Each antenna measured the group of randomly arranged stimulants described above. The antennae were stimulated one time with liquid paraffin and cis-3-hexenyl acetate and dissolved in solvent, before and after each group stimulation, in order to ensure the tested antenna were activated and the connecting pipe was not contaminated by stimulants. Recordings per stimulant were taken and the antennal responses were recorded. Eight male and female antennae were measured for each stimulant. The paired t-test was used to determine whether the difference in EAG values were significant between the dsRNA injected moths (dsGmolOBP7 and dsGFP) and the non-injected control. All the data were analyzed using SPSS 18.0 software (SPSS Inc., Chicago, IL, USA).

[3] = target: T1, rGmolOBP7 (recombinant GmolOBP7); assay: Binding of fluorescence probe 1-NPN to rGmolOBP7 (binding curve, Scatchard plot); settings: 2 μM protein in 20 mM Tris-HCl pH 7.4, 1-NPN up to 18 μM; read-out: dissociation constant (Kd) of 1-NPN
Description: as §1, with “solution. The binding affinity of rGmolOBP7 with 1-NPN was measured by adding aliquots of 1-NPN to a 2 μM protein solution (diluted with 20 mM Tris-HCl pH 7.4) to final concentrations of 0 to 18 μM.” for “solution.”
The corresponding florescence intensity values were collected as three independent measurements. The binding constant (K1−NPN) of 1-NPN to rGmolOBP7 was calculated using GraphPad Prism 5 software (GraphPad Software, Inc.) via nonlinear regression for a unique site of binding. The dissociation constant (Ki) of each ligands competitive binding to rGmolOBP7, were calculated from the corresponding IC50, by using the equation Ki = [IC50]/(1+[1-NPN]/K1−NPN), where [1-NPN] is the free concentration of 1-NPN, and K1−NPN is the dissociation constant of the complex protein/1-NPN.

[4] = system: male antennae of G. molesta; parameters: method as in Cardé et al., 1975, 1979; settings: ref Cardé et al., 1975, 1979; cited from earlier work
[5] = 2 μM rGmolOBP7 and 2 μM 1-NPN, 20 mM Tris-HCl pH 7.4, room temperature, three independent measurements, read-out: IC50
[6] = calculated from IC50 by Ki = [IC50]/(1+[1-NPN]/K1-NPN), read-out: Ki

T1 sequence (A0A2R4SBC1 entry or part of it): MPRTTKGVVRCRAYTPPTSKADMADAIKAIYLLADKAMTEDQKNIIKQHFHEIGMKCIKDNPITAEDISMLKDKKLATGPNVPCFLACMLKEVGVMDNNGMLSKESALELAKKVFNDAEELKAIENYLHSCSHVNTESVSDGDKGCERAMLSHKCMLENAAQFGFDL

Row | Compound | IC50 [1, 5] | Ki [1, 6] | IC50 [1] | Ki [1] | other results
1 | OCc1ccccc1 [Benzyl alcohol] | – | – | > 35 µM | > 35 µM | –
2 | N#Cc1ccccc1 [Benzonitrile] | – | – | 17.9 ± 1.29 µM | 12.5 µM | –
3 | CCCCCCCCCCCC=O [Lauraldehyde] | 6.18 ± 0.43 µM | 4.31 µM | – | – | EAG response of dsRNA-treated moths vs non-injected control [2]: not significantly different
4 | C=C1CC/C=C(\C)CC[C@@H]2[C@@H]1CC2(C)C [β-Caryophyllene] | – | – | > 35 µM | > 35 µM | –
5 | CC/C=C\CCOC(C)=O [(Z)-3-Hexenyl acetate] | 19.6 ± 0.27 µM | 13.7 µM | – | – | EAG response of dsRNA-treated moths vs non-injected control [2]: not significantly different
6 | CCCCCCO [1-Hexanol] | – | 17.4 µM | 24.9 ± 1.28 µM | – | –
7 | CCC/C=C\CCCCCCCOC(C)=O [(Z)-8-dodecenyl acetate] | – | – | – | – | binding to rGmolOBP7 (in words) [1]: did not bind; EAG response of dsRNA-treated moths vs non-injected control [2]: not significantly different
8 | CCCCOC(C)=O [Butyl acetate] | – | – | 18.1 ± 1.57 µM | 12.6 µM | –
9 | CCC(C)=CCCC(C)=CC#N [Lemonile] | > 35 µM | > 35 µM | – | – | –
10 | C=C1[C@@H]2CC[C@@H](C2)C1(C)C [(-)-Camphene] | > 35 µM | > 35 µM | – | – | –
11 | CC/C=C\CC1C(=O)CCC1CC(=O)OC (stereo not drawn) [Methyl jasmonate] | 18.7 ± 0.22 µM | 13 µM | – | – | –
12 | CCCCCCCCCCO [1-Decanol] | – | – | > 35 µM | > 35 µM | –
13 | c1ccc(Nc2cccc3ccccc23)cc1 [1-NPN, N-phenyl-1-naphthylamine] | – | – | – | – | Kd [3]: 2.3 µM
14 | CC1=CCC2CC1C2(C)C (stereo not drawn) [α-Pinene] | – | – | 17.1 ± 1.2 µM | 11.9 µM | EAG response of dsRNA-treated moths vs non-injected control [2]: not significantly different
15 | O=Cc1ccccc1 [Benzaldehyde] | – | – | 20.2 ± 0.27 µM | 14.1 µM | –
16 | C=C/C(C)=C/CCC(=C)C [α-Ocimene] | 11.1 ± 0.2 µM | 7.75 µM | – | – | EAG response of dsRNA-treated moths vs non-injected control [2]: not significantly different
17 | COC(=O)c1ccccc1O [Methyl salicylate] | – | – | 14.1 ± 0.22 µM | 9.81 µM | –
18 | C=CC(C)(O)CCC=C(C)CCC=C(C)C (mixture of isomers) [Nerolidol] | > 35 µM | > 35 µM | – | – | –
19 | CC/C=C\CCO [(Z)-3-Hexen-1-ol] | – | – | 17.6 ± 0.52 µM | 12.3 µM | –
20 | C=CC(C)(O)CCC=C(C)C (stereo not drawn) [Linalool] | – | – | 21.7 ± 1.11 µM | 15.1 µM | –
21 | CCC/C=C/C=O [(E)-2-Hexenal] | – | – | 24.4 ± 1.53 µM | 17 µM | –
22 | CCCCCCCCCCCCCCO [1-Tetradecanol] | – | – | > 35 µM | > 35 µM | –
23 | CCCCCC=O [Hexanal] | – | – | 27.4 ± 1.59 µM | 19.1 µM | –
24 | CCCCCCC=O [Heptanal] | – | 10.9 µM | 15.7 ± 0.64 µM | – | –

Continued, in another order:

Row | IC50 [1, 5] | Ki [1, 6] | Compound | IC50 [1] | Ki [1] | other results
25 | > 35 µM | > 35 µM | CCCCCCCCCCCCCC=O [Tetradecanal] | – | – | –
26 | 18.2 ± 1.27 µM | 12.7 µM | CCCCCCCCCC=O [Decanal] | – | – | –
27 | > 35 µM | > 35 µM | CCCCCCCCCCCCCCCC(=O)OC [Methyl palmitate] | – | – | –
28 | > 35 µM | > 35 µM | CCCCCCCCCCCCCC(=O)OC [Methyl myristate] | – | – | –
29 | 3.62 ± 0.25 µM | 2.52 µM | CCCCC/C=C\C=C\C(=O)OCC [Pear ester, Ethyl (E, Z)-2,4-decadienate] | – | – | EAG response of dsGmolOBP7-injected female moths vs dsGFP-injected and non-injected controls ([2]; 1-day-old females, 15 μL): significantly reduced; also recorded: significantly decreased; EAG response of dsGmolOBP7-injected male moths vs dsGFP-injected and non-injected controls ([2]; 15 μL): significantly reduced; also recorded: significantly decreased
30 | 16.3 ± 1.71 µM | 11.3 µM | CCCCOC(=O)CCC [Butyl butyrate] | – | – | –
31 | 24.4 ± 0.77 µM | 17 µM | CCCCCC(=O)OCCCC [Butyl hexanoate] | – | – | –
32 | > 35 µM | > 35 µM | CCC/C=C/CCCCCCCOC(C)=O [(E)-8-dodecenyl acetate] | – | – | binding to rGmolOBP7 (in words) [1]: did not bind; EAG response of dsRNA-treated moths vs non-injected control [2]: not significantly different
33 | > 35 µM | > 35 µM | CCC/C=C\CCCCCCCO [(Z)-8-dodecenyl alcohol] | – | – | binding to rGmolOBP7 (in words) [1]: did not bind; EAG response of dsRNA-treated moths vs non-injected control [2]: not significantly different
34 | > 35 µM | > 35 µM | CCCCCCCCCCCCCCCCO [1-Hexadecanol] | – | – | –
35 | 28.6 ± 3.38 µM | 19.9 µM | CCCCCCCCC=O [Nonanal] | – | – | –
36 | 10.7 ± 0.85 µM | 7.48 µM | CCCCCCCCCCCCO [1-Dodecanol] | – | – | EAG response of dsGmolOBP7-injected male moths vs dsGFP-injected and non-injected controls ([2]; 15 μL): significantly reduced; EAG response of dsGmolOBP7-injected male moths vs dsGFP-injected and non-injected controls ([2]; 15 μL, listed as 12:OH): significantly decreased; EAG response of male antennae [4]: weak EAG response
